“And” between values parts separate entries of the source, which are not always exact repeats. Equal values may be shown once. Read-outs that look alike come from different tables or passages of the source.

The target of this test is α-glucosidase (E.C.3.2.1.20) (Saccharomyces cerevisiae, UniProt P53341). Put plainly: α-glucosidase inhibitory activity (p-nitrophenyl-α-d-glucopyranoside substrate, absorbance at 400 nm). The format is biochemical. As to conditions: in vitro; for IC50: 0.1 M phosphate buffer, pH 6.8, 37° C., standard acarbose, unit inferred. Here is the method: . The substrate (0.7 Mm, p-nitrophenyl-α-d-glucopyranoside) was then mixed in and the difference in absorbance at 400 nm was recorded using a spectrophotometer for 30 minutes. The tested extracts and compound 1 were substituted with DMSO-d6 (7.5%) in the control. The standard drug used in this experiment was acarbose. The percentage activity was calculated by using the following formula.

Where [1] appears, read: read-out: IC50, α-glucosidase inhibition.

α-glucosidase (E.C.3.2.1.20), sequence (P53341 whole entry): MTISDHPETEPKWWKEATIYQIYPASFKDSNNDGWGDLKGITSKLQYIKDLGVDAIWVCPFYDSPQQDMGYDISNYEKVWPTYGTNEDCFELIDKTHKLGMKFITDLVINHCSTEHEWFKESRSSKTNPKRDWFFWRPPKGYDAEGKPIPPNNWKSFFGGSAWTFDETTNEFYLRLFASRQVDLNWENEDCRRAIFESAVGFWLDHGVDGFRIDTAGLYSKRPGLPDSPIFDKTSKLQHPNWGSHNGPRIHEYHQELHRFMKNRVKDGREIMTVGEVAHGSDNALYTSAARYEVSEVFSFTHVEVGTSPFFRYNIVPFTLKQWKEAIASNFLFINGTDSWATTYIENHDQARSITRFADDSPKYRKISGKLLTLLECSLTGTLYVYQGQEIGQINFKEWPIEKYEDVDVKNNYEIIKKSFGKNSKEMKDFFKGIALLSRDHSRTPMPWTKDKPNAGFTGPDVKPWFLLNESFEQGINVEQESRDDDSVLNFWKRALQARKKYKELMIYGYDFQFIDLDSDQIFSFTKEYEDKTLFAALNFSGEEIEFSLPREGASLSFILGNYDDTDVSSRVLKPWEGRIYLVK

Turning to `CC1(C)CCC2=C(O1)C(=O)c1ccccc1C2=O` [Compound 4, α-lapachone], under setting [1], the IC50 is 117 µM and 78.3 µM.
With peshawaraquinone [Compound 2], for the setting “comparison among the tested compounds 1-4”, the “α-glucosidase inhibitory activity (in words)” value is given as “least active”.
Turning to `COC(=O)C1(O)c2ccccc2C(=O)C1(O)CC=C(C)C` (stereo not shown) [Compound 3, Methyl 1,2-dihydroxy-2-(3-methylbut-2-enyl)-3-oxo-2,3-dihydroxo-1H-indene-1-carboxylate], the IC50 (IC50, α-glucosidase inhibition) is 78.3 µM and 117 µM.
Regarding `CC(C)=CCC1=C(O)C(=O)c2ccccc2C1=O` [Compound 1, lapachol], the 50% inhibitory concentration (IC50) under setting [1] was determined as 33.1 ± 2.41 µM.

The record behind these values is patent US11452708B2, “Discovery of potent [alpha]-glucosidase inhibitors from Heterophragma adenophyllum” (KING ABDULAZIZ UNIVERSITY, priority 2021, dated 2022).
